# Test results from patent publication US6469028B1, “Synthesis and use of retinoid compounds having negative hormone and/or anatgonist activities” (Allergan, Inc., priority 1995, dated 2002).
# What was measured:
# RARα = target: T1, RARα (Homo sapiens, UniProt P10276); assay: Example 7: inhibition of RAR transactivation by ATRA, CV-1 cells; assay type: cell-based; set-up: host or cells: TNT-coupled reticulocyte lysate in vitro transcription-translation; conditions: equal doses of AGN 193109 and ATRA (10 nM ATRA)
# T1 sequence (P10276 1-462): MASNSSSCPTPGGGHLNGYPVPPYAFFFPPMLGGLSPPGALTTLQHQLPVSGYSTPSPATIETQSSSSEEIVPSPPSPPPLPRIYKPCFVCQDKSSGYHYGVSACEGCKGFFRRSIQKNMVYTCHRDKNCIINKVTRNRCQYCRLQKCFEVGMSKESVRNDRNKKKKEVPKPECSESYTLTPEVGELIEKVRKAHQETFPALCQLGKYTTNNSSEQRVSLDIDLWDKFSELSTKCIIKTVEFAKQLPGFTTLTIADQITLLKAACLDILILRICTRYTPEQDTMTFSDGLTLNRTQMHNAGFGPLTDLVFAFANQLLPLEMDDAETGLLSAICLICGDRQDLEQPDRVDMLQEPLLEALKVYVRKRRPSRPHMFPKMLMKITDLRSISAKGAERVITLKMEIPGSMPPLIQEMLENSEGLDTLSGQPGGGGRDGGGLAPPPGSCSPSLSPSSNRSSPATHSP
# Experimental: Eukaryotic expression vectors pRShRAR-α (Giguere et al. Nature 330:624 (1987)), pRShRAR-β (Benbrook et al. Nature 333:669 (1988)) and pRShRAR-γ (Ishikawa et al. Mol. Endocrinol. 4:837 (1990)) were cotransfected with the Δ-MTV-Luc reporter plasmid described by Hollenberg et al. (Cell 55:899.(1988)). […] Calcium phosphate transfections were carried out exactly as described in Example 6. […] Cell lysates and luciferase activity measurements were also performed as in Example 6.
# [1] = target: T2, RAR-α and RXR-α with DR-5 RARE probe (Homo sapiens, UniProt P10276); assay: Example 9: gel shift analysis; assay type: biochemical; conditions: prebound with AGN 193109 (10^−6 M)
# T2 construct: made in house; host or cells: reticulocyte lysate in vitro transcription-translation
# Source text: In vitro translated RAR-α was produced essentially as described under Example 8, except that ^35S-labeled methoinine was omitted. In vitro translated RXR-α was similarly produced using a pBluescript(II)(SK)-based vector containing the RXR-α cDNA described by Mangelsdorf, et al. in Nature 345:224-229 (1990) as the template for generating in vitro transcripts. […] The binding mixture was electrophoresed on a non-denaturing polyacrylamide gel and autoradiographed according to standard laboratory procedures. A single retarded species appearing on the autoradiograph that was common to all the lanes on the gel represented an undefined probe-binding factor present in the reticulocyte lysate. Only the RAR/RXR combination gave rise to a retinoid receptor-specific retarded species. Neither RAR alone nor RXR alone bound the probe to produce this shifted species.
# RXRs = assay: Affinity for the RXRs; assay type: binding
# CaSki cell tumors = assay: Example 22: CaSki cell tumor growth in nude mice; assay type: in vivo; conditions: 20 μMol/kg AGN 193109 in corn oil daily, intragastric
# Experimental: 1×10^6 CaSki cells are injected into each of a panel of nude mice. Tumor formation is assessed using techniques that will be familiar to one having ordinary skill in the art. After injection, mice are randomly divided into control and test groups. The control group receives a placebo. The test group is administered with AGN 193109. Animals administered with the placebo receive intragastric intubation of corn oil. The test animals receive 20 μMol/kg AGN 193109 in corn oil daily for the period of the treatment. Tumor volume is measured in […] using graduated calipers. Tumor volume is plotted as function of time.
# ER-RXR-α = assay: Example 11: ER-RXR-α alone, ERE-tk-Luc, CV-1 cells
# rabbits = assay: Example 24: rabbit model of proliferative vitreoretinopathy (PVR); assay type: in vivo
# CaSki cells = assay: Example 18: proliferation of CaSki cells; assay type: cell-based; conditions: 10^−6 M AGN 193109, no added retinoid agonist
# Experimental: EGF was added to the retinoid treated cultures to give a final concentration of 20 ng/ml. […] The media was replaced with fresh media and each of the two retinoid compounds, as appropriate, every day. Cell numbers were determined using a COULTER counter as described above.
# [2] = test system: patients having retinal detachment resulting from PVR; conditions: 40 mg oral AGN 193109 + 4 mg oral 13-cis retinoic acid twice daily for four weeks
# RARγ = target: T3, RARγ (Homo sapiens, UniProt P13631); assay: Transactivation in CV-1 cells, ΔMTV-TREp-Luc reporter; assay type: cell-based; set-up: expressed in transfected cells; host or cells: green monkey CV-1 cells; conditions: 10^−9 to 10^−6 M, 18 hours
# T3 sequence (P13631 1-454): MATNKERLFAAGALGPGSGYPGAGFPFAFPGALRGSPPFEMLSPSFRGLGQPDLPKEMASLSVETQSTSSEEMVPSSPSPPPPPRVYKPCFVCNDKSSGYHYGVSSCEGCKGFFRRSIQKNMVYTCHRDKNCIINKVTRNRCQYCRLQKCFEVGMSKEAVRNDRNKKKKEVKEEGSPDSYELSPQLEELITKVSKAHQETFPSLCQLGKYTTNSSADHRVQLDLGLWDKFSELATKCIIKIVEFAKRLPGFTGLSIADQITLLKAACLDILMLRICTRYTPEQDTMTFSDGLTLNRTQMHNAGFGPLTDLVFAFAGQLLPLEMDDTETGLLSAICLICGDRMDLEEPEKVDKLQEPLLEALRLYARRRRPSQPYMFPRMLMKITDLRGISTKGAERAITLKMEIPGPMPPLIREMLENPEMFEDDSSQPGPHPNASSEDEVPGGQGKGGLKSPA
# T2 sequence (P19793 whole entry partner, one chain of several): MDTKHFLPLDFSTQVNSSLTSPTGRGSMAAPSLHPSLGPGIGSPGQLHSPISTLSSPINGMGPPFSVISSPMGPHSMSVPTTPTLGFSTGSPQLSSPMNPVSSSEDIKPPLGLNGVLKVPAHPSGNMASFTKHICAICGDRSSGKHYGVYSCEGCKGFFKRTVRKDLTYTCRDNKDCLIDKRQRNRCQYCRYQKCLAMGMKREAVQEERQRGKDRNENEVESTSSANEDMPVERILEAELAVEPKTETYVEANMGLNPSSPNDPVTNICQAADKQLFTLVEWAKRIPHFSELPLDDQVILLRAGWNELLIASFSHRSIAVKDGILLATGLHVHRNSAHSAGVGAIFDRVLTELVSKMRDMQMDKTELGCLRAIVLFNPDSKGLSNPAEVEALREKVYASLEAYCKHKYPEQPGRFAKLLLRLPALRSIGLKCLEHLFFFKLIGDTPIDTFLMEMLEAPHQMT
smiles,measurement,setting,value
"Cc1ccc(C2=CCC(C)(C)c3ccc(C#Cc4ccc(C(=O)O)cc4)cc32)cc1 [Compound 60, 4-[(5,6-dihydro-5,5-dimethyl-8-(4-methylphenyl)-2-naphthalenyl)ethynyl]benzoic acid]",inhibition of luciferase activity relative to ATRA alone,RARα,greater than 50%
same,RAR/RXR retarded species on DR-5 RARE probe,[1],did not diminish this interaction
same,affinity for the RXRs,RXRs,no measurable affinity
same,tumor growth rate,CaSki cell tumors,tumors which are significantly reduced in their growth rate
same,luciferase expression levels,"ER-RXR-α; cells transfected only with ER-RXR-α, AGN 193109 as high as 10^−6 M","approximately 8,000 rlu"
same,luciferase activity,ER-RXR-α; reporter and chimeric receptor without RAR-γ-VP-16,did not exhibit any effect on luciferase activity
same,frequency and severity of tractional retinal detachment,rabbits; AGN 193109 100 μg + retinoic acid 10 μg intravitreal,significantly reduced frequency and severity of retinal detachment
same,incidence and severity of retinal detachment,"rabbits; second study, AGN 193109 100 μg + thyroid hormone 100 μg",significantly reduced incidence and severity of retinal detachment
same,retinal detachment compared with control rabbits,"rabbits; second study, single agent 100 μg intravitreal",does not inhibit retinal detachment
same,proliferation,CaSki cells,inhibited proliferation of the CaSki cervical epithelial cell line
same,therapeutic outcome versus 40 mg oral 13-cis retinoic acid,[2],equal to or better than
same,EC50 (nM) RAR-γ,RARγ,No Activity
